Calls of active or inactive are those of the source. The calls are words filed in the database; no cut-off is given here.
Legend:
[1] = Inhibition of PP2A
[2] = Inhibition of PP1

Activity [1]	Activity [2]	Compound
inactive	inactive	C=C1[C@@H](O)[C@@H]2O[C@]3(CC[C@H](/C=C/[C@@H](C)[C@@H]4CC(C)=C[C@@]5(O[C@H](C[C@@](C)(O)C(=O)OC/C(C)=C/C=C/CCO)CC[C@H]5O)O4)O3)CC[C@H]2O[C@@H]1[C@@H](O)C[C@H](C)[C@H]1O[C@@]2(CCCCO2)CC[C@H]1C
inactive	inactive	C=C1[C@@H](O)[C@@H]2O[C@]3(CC[C@H](/C=C/[C@@H](C)[C@@H]4CC(C)=C[C@@]5(O[C@H](C[C@@](C)(O)C(=O)OC/C(C)=C/C=C/CO)CC[C@H]5O)O4)O3)CC[C@H]2O[C@@H]1[C@@H](O)C[C@H](C)[C@H]1O[C@@]2(CCCCO2)CC[C@H]1C
inactive	inactive	C=C1[C@@H](O)[C@@H]2O[C@]3(CC[C@H](/C=C/[C@@H](C)[C@@H]4CC(C)=C[C@@]5(O[C@H](C[C@@](C)(O)C(=O)OC)CC[C@H]5O)O4)O3)CC[C@H]2O[C@@H]1[C@@H](O)C[C@H](C)[C@H]1O[C@@]2(CCCCO2)CC[C@H]1C

— ChEMBL document CHEMBL1150055, “New Diol Esters Isolated from Cultures of the Dinoflagellates Prorocentrum lima and Prorocentrum concavum” (J Nat Prod, 1992)
